From patent US12357579B2, “Capsule for treating ulcerative colitis” (KEIO UNIVERSITY, priority 2018, dated 2025)

Tests used:
mouse model of colitis = details: cited from earlier work
[1] = system: colitis model mice (2.0% DSS, C57BL/6J); assay: DSS-induced colitis model mice: colitis-suppressing action (body weight, DAI score, colon length); format: in vivo; details: oral, 7 days; for effect on colitis (overall): indigo amount 0.5 mg/day (equivalent to 25 mg/kg/day)
Description: As mice used in an animal test, C57BL/6J was started to use after preliminary breeding for 3 days after purchase. First, a 2.0% solution of DSS (dextran sulfate sodium salt, molecular weight 36,000 to 44,000) was given to mice to cause colitis to prepare colitis model mice. The colitis model mice were administered with only sterilized water to obtain control mice. It should be noted that, in order to maintain the colitis state of the mice for 7 days, the 2.0% DDS (dextran sulfate sodium salt) solution was orally administered at the same time as the administration of the sterile water. Five capsules (equivalent to indigo amount of 0.5 mg) and 15 capsules (equivalent to indigo amount of 1.5 mg) both of which were the indigo-containing capsules A were each orally administered to 5 specimens of colitis mice for 7 days. It should be noted that, in order to maintain the colitis state of the mice for 7 days, the 2.0% DDS (dextran sulfate sodium salt) solution was orally administered at the same time when the oral administration of the capsules A. Colitis-suppressing action of indigo was evaluated by a decrease in the endpoints such as body weight (BW), disease activity index (DAI) score (DAI score: a total score (0 to 12) of the number of defecation, bloody stool, mucosal findings, and general endpoints scored 0 to 3 on a 4-point scale), and colon length. […] FIG. 3 is a graph representing results of disease activity index score (DAI score). It should be noted that the DAI score refers to an evaluation index described in the literature “Sutherland L R, Martin F, Greer S, et al: 5-Aminosalicylic acid enema in the treatment of distal colitis, proctosigmoiditis, and proctitis. Gastroenterology 92: 1894-1898, 1987”. FIG. 4 is a graph representing results of measuring colon length. Since the colon length is shortened by causing colitis, the colon length of each mouse group was measured as another index for the evaluation of colitis, and the average value thereof was represented by a histogram.

[2] = indigo amount 0.5 mg/day, vs control group

For `O=C1/C(=C2\Nc3ccccc3C2=O)Nc2ccccc21` [indigo powder, indigo], the “effect in colitis model mice” value (mouse model of colitis; low dose 60 mg/kg/day of powder) is listed as “effective”, the “therapeutic effect in mouse model of colitis” value (mouse model of colitis; powder administration) is listed as “had a therapeutic effect” and the “effect on colitis (overall)” value [1] is listed as “no effect of indigo was observed”. The “effect on colitis (overall)” value ([1]; listed as powder) was “no effect”, the “changes in body weight (BW)” value [1, 2] was “decreasing the body weight was also observed as compared with the control group” and the colon length [1, 2] was “the same as that of the control group”.
